Test results: publication PMC6073568, “Efficient Lead Finding, Activity Enhancement and Preliminary Selectivity Control of Nuclear Receptor Ligands Bearing a Phenanthridinone Skeleton” (International Journal of Molecular Sciences, 2018)

Assays:
[1] = molecular target: T1, RORβ (Homo sapiens, UniProt Q92753); settings: reporter gene assay, HEK293; read-out: RORβ inverse agonistic activity (IC50); cited from earlier work
T1 construct: expressed in transfected cells; host or cells: HEK293
T1 sequence (Q92753 1-459 isoform Q92753-1): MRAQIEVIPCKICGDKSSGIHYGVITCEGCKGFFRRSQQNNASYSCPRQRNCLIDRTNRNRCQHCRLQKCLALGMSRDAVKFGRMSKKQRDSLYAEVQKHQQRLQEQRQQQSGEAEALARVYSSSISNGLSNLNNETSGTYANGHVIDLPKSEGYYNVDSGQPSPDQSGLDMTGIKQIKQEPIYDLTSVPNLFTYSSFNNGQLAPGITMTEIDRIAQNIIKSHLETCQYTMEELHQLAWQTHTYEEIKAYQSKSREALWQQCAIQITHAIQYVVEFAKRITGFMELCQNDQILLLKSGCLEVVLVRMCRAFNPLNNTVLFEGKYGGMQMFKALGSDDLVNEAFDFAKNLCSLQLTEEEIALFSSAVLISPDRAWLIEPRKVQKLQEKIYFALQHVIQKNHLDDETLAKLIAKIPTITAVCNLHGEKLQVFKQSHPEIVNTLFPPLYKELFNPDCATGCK

[2] = molecular target: T2, AR (Homo sapiens, UniProt P10275); test: AR reporter gene assay in HEK293; assay type: cell-based; settings: for IC50: reporter gene assay, HEK293, agonist dihydrotestosterone 0.3 nM, read-out: AR antagonistic activity (IC50), AR reporter gene
T2 sequence (P10275 1-920): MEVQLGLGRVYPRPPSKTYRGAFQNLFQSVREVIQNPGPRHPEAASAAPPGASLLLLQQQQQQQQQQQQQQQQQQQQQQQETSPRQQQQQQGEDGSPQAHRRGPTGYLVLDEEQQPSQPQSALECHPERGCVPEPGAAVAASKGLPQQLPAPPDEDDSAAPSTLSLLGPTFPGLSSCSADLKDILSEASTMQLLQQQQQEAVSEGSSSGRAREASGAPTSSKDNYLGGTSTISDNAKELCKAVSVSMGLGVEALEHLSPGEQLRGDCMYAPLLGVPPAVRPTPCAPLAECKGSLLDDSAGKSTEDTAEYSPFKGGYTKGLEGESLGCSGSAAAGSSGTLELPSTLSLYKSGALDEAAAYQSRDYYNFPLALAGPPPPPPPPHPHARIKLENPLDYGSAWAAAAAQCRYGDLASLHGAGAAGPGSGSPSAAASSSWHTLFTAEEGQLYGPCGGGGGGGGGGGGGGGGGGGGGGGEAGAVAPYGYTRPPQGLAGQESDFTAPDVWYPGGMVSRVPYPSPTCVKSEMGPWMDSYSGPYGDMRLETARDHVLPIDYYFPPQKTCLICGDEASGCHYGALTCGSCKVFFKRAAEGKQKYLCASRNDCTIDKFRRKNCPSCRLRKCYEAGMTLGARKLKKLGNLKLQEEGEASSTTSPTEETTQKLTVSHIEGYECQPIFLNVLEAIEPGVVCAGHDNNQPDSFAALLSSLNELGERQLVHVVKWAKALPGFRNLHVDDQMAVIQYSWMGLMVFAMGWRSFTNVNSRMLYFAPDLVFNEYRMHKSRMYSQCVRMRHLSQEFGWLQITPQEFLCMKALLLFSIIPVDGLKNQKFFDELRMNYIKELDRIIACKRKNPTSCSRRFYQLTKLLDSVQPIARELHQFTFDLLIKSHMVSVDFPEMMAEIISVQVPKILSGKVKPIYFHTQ

[3] = molecular target: T3, GR (Homo sapiens, UniProt P04150); test: GR reporter gene assay in HEK293; assay type: cell-based; settings: for IC50: reporter gene assay, HEK293, agonist dexamethasone 1 nM, read-out: GR antagonistic activity (IC50)
T3 construct: expressed in transfected cells; host or cells: HEK293
T3 sequence (P04150 1-777): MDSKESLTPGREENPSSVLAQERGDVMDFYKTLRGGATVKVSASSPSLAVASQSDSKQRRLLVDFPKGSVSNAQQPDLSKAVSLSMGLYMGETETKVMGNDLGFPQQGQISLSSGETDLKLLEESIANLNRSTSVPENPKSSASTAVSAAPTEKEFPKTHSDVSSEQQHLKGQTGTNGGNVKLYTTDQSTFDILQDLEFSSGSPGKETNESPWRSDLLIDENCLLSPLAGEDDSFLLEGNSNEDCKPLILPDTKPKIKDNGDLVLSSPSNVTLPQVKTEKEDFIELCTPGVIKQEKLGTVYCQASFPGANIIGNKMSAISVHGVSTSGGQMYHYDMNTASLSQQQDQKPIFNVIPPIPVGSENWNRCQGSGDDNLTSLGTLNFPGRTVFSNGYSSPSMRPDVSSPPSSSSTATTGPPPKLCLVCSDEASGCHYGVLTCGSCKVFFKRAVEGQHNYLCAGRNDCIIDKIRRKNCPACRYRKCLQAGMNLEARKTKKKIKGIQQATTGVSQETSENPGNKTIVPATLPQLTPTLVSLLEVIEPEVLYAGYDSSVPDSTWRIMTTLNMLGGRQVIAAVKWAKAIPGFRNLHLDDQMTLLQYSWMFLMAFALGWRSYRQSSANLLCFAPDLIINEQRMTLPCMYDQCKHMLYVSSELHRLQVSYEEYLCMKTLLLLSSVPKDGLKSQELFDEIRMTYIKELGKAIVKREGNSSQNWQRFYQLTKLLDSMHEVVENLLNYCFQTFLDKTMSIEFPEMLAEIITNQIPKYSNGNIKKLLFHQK

[4] = molecular target: T4, RORγ (Homo sapiens, UniProt P51449); settings: reporter gene assay, HEK293; read-out: RORγ inverse agonistic activity (IC50); cited from earlier work
T4 construct: expressed in transfected cells; host or cells: HEK293
T4 sequence (P51449 1-518): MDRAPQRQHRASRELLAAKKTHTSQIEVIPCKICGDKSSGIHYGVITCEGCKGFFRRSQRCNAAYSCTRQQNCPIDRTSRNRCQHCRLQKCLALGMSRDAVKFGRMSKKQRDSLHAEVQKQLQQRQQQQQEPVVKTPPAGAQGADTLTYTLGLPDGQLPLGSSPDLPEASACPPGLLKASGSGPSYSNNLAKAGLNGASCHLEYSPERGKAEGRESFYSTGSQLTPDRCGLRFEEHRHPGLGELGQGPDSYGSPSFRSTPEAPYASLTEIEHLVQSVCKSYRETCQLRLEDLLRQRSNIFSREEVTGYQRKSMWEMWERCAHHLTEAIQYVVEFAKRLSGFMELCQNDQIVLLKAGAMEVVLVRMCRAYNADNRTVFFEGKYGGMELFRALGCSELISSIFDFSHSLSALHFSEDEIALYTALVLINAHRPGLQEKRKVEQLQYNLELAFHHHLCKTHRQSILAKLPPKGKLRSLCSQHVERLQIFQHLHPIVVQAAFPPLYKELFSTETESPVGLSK

Row | SMILES | IC50 [2] | IC50 [3] | improved GR activity compared with 12 [3] | selectivity for AR over LXRα [2] | selectivity for AR over PR [2] | selectivity for AR over RORs and LXRβ [2] | AR potency relative to OHF (more potent) ([2]; under the authors' assay conditions) | IC50 [1] | IC50 [4]
1 | CCCCn1c(=O)c2ccccc2c2ccccc21 [Compound 7] | 17 µM | > 20 µM |  |  |  |  |  | 13 µM | 15 µM
2 | CCCCn1c(=O)c2ccccc2c2cc(C(C)(C)C)ccc21 [Compound 10] | 17 µM | > 20 µM |  |  |  |  |  | 13 µM | 10 µM
3 | CCCCn1c(=O)c2ccccc2c2cc(CO)ccc21 [Compound 11] | 9.6 µM | > 20 µM |  |  |  |  |  | > 20 µM | > 20 µM
4 | CCCCn1c(=O)c2c(OC)cccc2c2cc(C(O)(C(F)(F)F)C(F)(F)F)ccc21 [Compound 21] | 9.4 µM | 14 µM |  |  |  |  |  | 15 µM | 13 µM
5 | CCCCn1c(=O)c2ccc(OC)cc2c2cc(C(O)(C(F)(F)F)C(F)(F)F)ccc21 [Compound 23] | > 20 µM | 10 µM |  |  |  |  |  | 7.2 µM | 2.7 µM
6 | CCCCn1c(=O)c2cccc(OC)c2c2cc(C(O)(C(F)(F)F)C(F)(F)F)ccc21 [Compound 24] | > 20 µM | > 20 µM |  |  |  |  |  | > 20 µM | 8.5 µM
7 | CCCCn1c(=O)c2ccccc2c2cc(C(O)(C(F)(F)F)C(F)(F)F)c3c(c21)OCO3 [Compound 26] | 0.54 µM | 0.76 µM |  |  |  |  |  | > 20 µM | > 20 µM
8 | CCCCn1c(=O)c2cc(OC)ccc2c2cc(C(O)(C(F)(F)F)C(F)(F)F)c(OC)cc21 [Compound 27] | 0.58 µM | 1.7 µM |  |  |  |  |  | 13 µM | 12 µM
9 | CCCCn1c(=O)c2cc(OC)ccc2c2cc(C(O)(C(F)(F)F)C(F)(F)F)cc(OC)c21 [Compound 28] | 1.7 µM | 5.2 µM |  |  |  |  |  | 11 µM | 9.7 µM
10 | CCCCn1c(=O)c2c(OC)c(OC)ccc2c2cc(C(O)(C(F)(F)F)C(F)(F)F)ccc21 [Compound 29] | 4.6 µM | 7.9 µM |  |  |  |  |  | 7.7 µM | 8 µM
11 | CCCCn1c(=O)c2c(OC)cc(OC)cc2c2cc(C(O)(C(F)(F)F)C(F)(F)F)ccc21 [Compound 30] | > 20 µM | > 20 µM |  |  |  |  |  | > 20 µM | > 20 µM
12 | CCCCn1c(=O)c2cc(OC)c(OC)cc2c2cc(C(O)(C(F)(F)F)C(F)(F)F)ccc21 [Compound 31] | 1.6 µM | 17 µM |  |  |  |  |  | 16 µM | 19 µM

The next lines start with results.

Row | IC50 [2] | IC50 [3] | improved GR activity compared with 12 [3] | selectivity for AR over LXRα [2] | selectivity for AR over PR [2] | selectivity for AR over RORs and LXRβ [2] | AR potency relative to OHF (more potent) ([2]; under the authors' assay conditions) | SMILES | IC50 [1] | IC50 [4]
13 | 0.1 µM | > 20 µM |  |  |  |  |  | O=c1[nH]c2ccc(C(O)(C(F)(F)F)C(F)(F)F)cc2c2ccccc12 [Compound 1] | > 20 µM | > 20 µM
14 | 0.5 µM | > 20 µM |  |  |  |  |  | Cn1c(=O)c2ccccc2c2cc(C(O)(C(F)(F)F)C(F)(F)F)ccc21 [Compound 13] | > 20 µM | > 20 µM
15 | 1.7 µM | > 20 µM |  |  |  |  |  | CCn1c(=O)c2ccccc2c2cc(C(O)(C(F)(F)F)C(F)(F)F)ccc21 [Compound 14] | > 20 µM | > 20 µM
16 | 15 µM | > 20 µM |  |  |  |  |  | CCCCCCCCCn1c(=O)c2ccccc2c2cc(C(O)(C(F)(F)F)C(F)(F)F)ccc21 [Compound 17] | > 20 µM | > 20 µM
17 | > 20 µM | > 20 µM |  |  |  |  |  | CCCCn1c(=O)c2ccccc2c2c(OC)c(C(O)(C(F)(F)F)C(F)(F)F)ccc21 [Compound 18] | > 20 µM | > 20 µM
18 | 1.1 µM | 1.3 µM | 5.7 fold |  |  |  |  | CCCCn1c(=O)c2ccccc2c2cc(C(O)(C(F)(F)F)C(F)(F)F)c(OC)cc21 [Compound 19] | 8.2 µM | 7.5 µM
19 | 2.4 µM | 3.9 µM |  |  |  |  |  | CCCCn1c(=O)c2ccccc2c2cc(C(O)(C(F)(F)F)C(F)(F)F)cc(OC)c21 [Compound 20] | 6.9 µM | 5.4 µM
20 | 1 µM | 8.2 µM |  |  |  |  |  | CCCCn1c(=O)c2cc(OC)ccc2c2cc(C(O)(C(F)(F)F)C(F)(F)F)ccc21 [Compound 22] | 15 µM | 13 µM
21 | 6.1 µM | > 20 µM |  |  |  |  |  | CCCCn1c(=O)c2ccccc2c2cc(C(O)(C(F)(F)F)C(F)(F)F)c(OC)c(OC)c21 [Compound 25] | > 10 µM | 8.5 µM
22 | 0.39 µM | 6.9 µM |  |  |  |  |  | O=c1[nH]c2c(F)cc(C(O)(C(F)(F)F)C(F)(F)F)cc2c2ccccc12 [Compound 32] | 14 µM | 18 µM
23 | 0.46 µM | 9.8 µM |  |  |  |  |  | O=c1[nH]c2ccc(C(O)(C(F)(F)F)C(F)(F)F)cc2c2cccc(F)c12 [Compound 33] | 9.8 µM | 13 µM
24 | 0.68 µM | > 20 µM |  |  |  |  |  | O=c1[nH]c2ccc(C(O)(C(F)(F)F)C(F)(F)F)cc2c2ccc(F)cc12 [Compound 34] | 11 µM | > 20 µM
25 | 0.92 µM | 7 µM |  |  |  |  |  | O=c1[nH]c2ccc(C(O)(C(F)(F)F)C(F)(F)F)cc2c2cc(F)ccc12 [Compound 35] | 8.3 µM | 5 µM
26 | > 20 µM | > 20 µM |  |  |  |  |  | COc1cc(C(O)(C(F)(F)F)C(F)(F)F)cc2c1[nH]c(=O)c1ccccc12 [Compound 39] | > 20 µM | 9.6 µM
27 | 0.059 µM | > 20 µM |  | 90 fold | 6 fold | more than 340 fold | 2.9 fold | O=c1[nH]c2c(Cl)cc(C(O)(C(F)(F)F)C(F)(F)F)cc2c2ccccc12 [Compound 43, 4-Chloro-2-(1,1,1,3,3,3-hexafluoro-2-hydroxypropan-2-yl)phenanthridin-6(5H)-one] |  | 
